{"source": "patent US20090227666A1", "about": "“Enhancing Disease Resistance In An Animal” (Hill's Pet Nutrition, Inc., priority 2007, published 2009)", "origin": "cited, not measured here", "tested_on": "CD8+ T cell population", "settings": "moderate (101 mg/kg of food) or high (447 mg/kg of food) versus low-normal (17 mg/kg of food)", "data": [{"smiles": "CC(=O)Oc1c(C)c(C)c2c(c1C)CCC(C)(CCC[C@H](C)CCC[C@H](C)CCCC(C)C)O2", "note": "(stereo partly drawn) [α-tocopheryl acetate]", "values": [{"measurement": "percentages of CD8+ cells", "value": "increased percentages of CD8+ cells"}]}]}
